“Also recorded” adds a separate entry of the source. Read-outs that look alike come from different tables or passages of the source.
Key:
MDA-MB-468 cells = test: MTT cytotoxicity assay in MDA-MB-468 cells; assay type: cell-based; settings: for Cytotoxicity in combination with doxorubicin compared with SNI-1: MDA-MB-468, 5 μM compound + 5 μM doxorubicin; for Cell viability inhibition in combination with cisplatin compared with SNI-1: MDA-MB-468, 5 μM compound + 20 μM cisplatin; for Cell viability inhibition (%) (Single agent) MDA-MB-468: MTT, SNI analogs 5 μM, doxorubicin 5 μM, cisplatin 20 μM; for Cell viability inhibition as single agent compared with SNI-1: MDA-MB-468, single agent
Experimental: (§1) The cell lines were cultured in Dulbecco's Modified Eagle's Medium and Roswell Park Memorial Institute (RPMI) as per ATCC recommendation. Media was supplemented with 10% FBS, 2 mM L-glutamine, 100 U/ml penicillin, and 100 mg/ml streptomycin and incubated at 37° C. in a 5% CO2 air humidified atmosphere.
(§2) For the in vitro cytotoxicity studies, cells were seeded in 96-well plates with approximately 5000-8000 cells per well, depending upon the cell's exponential growth.
(§3) For cytotoxic response, cells were analyzed using the MTT reagent dissolved in PBS (1 mg/ml) at pH 7.4. […] Cells were then incubated again for 2-4 hours at 37° C., after which time the MTT reagent was added and the cells were incubated an additional 2 hours. Following this, the media was supplanted by DMSO, and the plates were put on a shaker for 15 min. The absorbance was measured at 570 nm using a high-performance multi-mode plate reader (Synergy 2, BioTek). The percentage of surviving cells was calculated by comparing the treated cells' absorbance and legitimate controls cells. The same procedure was followed for all the cell lines and later calculate the percentage of viable cells independently.

MDA-MB-231 cells [1] = test: MTT cytotoxicity assay in MDA-MB-231 cells; assay type: cell-based; settings: for cytotoxicity at 5 µM: Homo sapiens; for Inhibition of viabilities as single agent compared with SNI-1: 24 h or 48 h
Experimental: Here, SNI-1 analogs were synthesized by incorporating combinations of substitutions on Rings A and C (FIG. 8). The efficacy of these compounds was analyzed in two different cell lines: MDA-MB-468 and MDA-MB-231. […] The duration of treatment time was 24 h for […] and 24 h and 48 h for MDA-MB-231 cells. These cells are a more aggressive form of TNBC cells. It expresses both epidermal growth factor (EGF) and transforming growth factor-alpha (TGF alpha) receptors.

HCC-1937 cells [2] = settings: human, 24 h, 5 μM
Experimental: as §1, §2, §3
(§4) Each histogram's columns indicate the percent of live/viable cells relative to their DMSO-treated controls.

HCC-1937 cells [3] = test: MTT cytotoxicity assay in HCC-1937 cells (BRCA-1 mutation); settings: 24 h
Experimental: as §1, §2, §3, §4

MDA-MB-231 cells [4] = settings: MDA-MB-231, 4T1 and resistant TNBC cells; 5 μM SNI-1 + 20 μM cisplatin; cited from earlier work
4T1 TNBC = settings: cited from earlier work
CARP-1 and NEMO binding = molecular target: T1, CARP-1 and NEMO binding (Homo sapiens, UniProt Q8IX12); settings: biochemical mechanism; cited from earlier work
T1 sequence (Q8IX12 1-1150): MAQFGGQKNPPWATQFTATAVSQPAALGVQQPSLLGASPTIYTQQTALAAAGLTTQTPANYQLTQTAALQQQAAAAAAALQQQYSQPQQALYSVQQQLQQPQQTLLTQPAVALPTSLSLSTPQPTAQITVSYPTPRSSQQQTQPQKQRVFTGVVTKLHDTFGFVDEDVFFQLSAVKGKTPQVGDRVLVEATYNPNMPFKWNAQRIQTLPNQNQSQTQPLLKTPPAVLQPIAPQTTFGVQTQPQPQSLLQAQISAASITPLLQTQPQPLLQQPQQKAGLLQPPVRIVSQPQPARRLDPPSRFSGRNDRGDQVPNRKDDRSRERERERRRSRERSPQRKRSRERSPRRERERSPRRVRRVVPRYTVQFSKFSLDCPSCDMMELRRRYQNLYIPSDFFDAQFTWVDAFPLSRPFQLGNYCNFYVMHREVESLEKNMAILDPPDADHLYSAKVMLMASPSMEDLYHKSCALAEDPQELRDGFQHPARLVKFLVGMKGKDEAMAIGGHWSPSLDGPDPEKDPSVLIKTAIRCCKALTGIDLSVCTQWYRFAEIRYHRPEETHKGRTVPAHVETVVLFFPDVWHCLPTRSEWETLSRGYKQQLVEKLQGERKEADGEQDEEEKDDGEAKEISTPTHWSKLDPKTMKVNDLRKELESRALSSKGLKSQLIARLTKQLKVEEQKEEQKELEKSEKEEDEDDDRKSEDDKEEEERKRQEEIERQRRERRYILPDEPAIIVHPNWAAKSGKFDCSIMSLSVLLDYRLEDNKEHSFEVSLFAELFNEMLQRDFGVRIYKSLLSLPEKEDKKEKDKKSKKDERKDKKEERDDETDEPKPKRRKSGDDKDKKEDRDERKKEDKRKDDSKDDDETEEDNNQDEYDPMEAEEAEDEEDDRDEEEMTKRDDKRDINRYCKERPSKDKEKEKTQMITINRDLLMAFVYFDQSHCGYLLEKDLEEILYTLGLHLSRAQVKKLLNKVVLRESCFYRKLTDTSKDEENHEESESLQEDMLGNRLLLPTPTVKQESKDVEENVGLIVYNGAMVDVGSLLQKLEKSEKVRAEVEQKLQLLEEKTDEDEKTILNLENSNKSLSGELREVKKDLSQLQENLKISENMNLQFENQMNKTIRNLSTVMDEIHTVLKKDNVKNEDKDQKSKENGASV

[5] = Homo sapiens, MDA-MB-468, 5 μM compound + 5 μM doxorubicin, 24 h, read-out: Cell viability inhibition (%) with Doxorubicin MDA-MB-468
[6] = MDA-MB-231, 5 μM compound + 5 μM doxorubicin, 24 h, read-out: Cell viability inhibition (%) with Doxorubicin MDA-MB-231
[7] = single agent, SNI analogs 5 μM, doxorubicin 5 μM

Compound	cytotoxicity at 5 µM (MDA-MB-468 cells; [5])	Cell viability inhibition in combination with cisplatin compared with SNI-1 (MDA-MB-468 cells; 24 h)	Cell viability inhibition (%) (Single agent) MDA-MB-468 (MDA-MB-468 cells; single agent, 24 h)	cytotoxicity at 5 µM (MDA-MB-231 cells [1]; [6])	Cell viability inhibition (%) Single-agent MDA-MB-231 (MDA-MB-231 cells [1]; [7])	Cell viability inhibition (%) Single-agent HCC-1937 (HCC-1937 cells [2])	further results
O=C(CSc1nnnn1-c1ccc(Cl)cc1Cl)c1ccc(O)c(O)c1 [GL-341, 2-((1-(2,4-dichlorophenyl)-1H-tetrazol-5-yl)thio)-1-(3,4-dihydroxyphenyl)ethan-1-one]	~49%	greater inhibitory effect	~3%	~68%	~21%	~6%	Cytotoxicity in combination with doxorubicin compared with SNI-1 (MDA-MB-468 cells; 24 h): slightly higher cytotoxicity; Efficacy in combination with cisplatin compared with SNI-1 (MDA-MB-231 cells [1]; MDA-MB-231, 5 μM compound + 20 μM cisplatin, 48 h): better efficacy when used in combination with cisplatin compared to SNI-1 and cisplatin itself; Inhibition of viabilities as single agent compared with SNI-1 (MDA-MB-231 cells [1]; MDA-MB-231, single agent, 5 μM): greater inhibition of viabilities than SNI-1
NS(=O)(=O)c1ccc(-n2nnnc2SCC(=O)c2ccc(N3CCOCC3)cc2)cc1 [GL-343, 4-(5-((2-(4-morpholinophenyl)-2-oxoethyl)thio)-1H-tetrazol-1-yl)benzenesulfonamide]	~57%		~2%	~79%	~36%	~1%	cytotoxicity at 5 µM (MDA-MB-231 cells [1]; MDA-MB-231, single agent, 5 μM, read-out: Greater inhibition of cell viability when compared with SNI-1 as a single agent): ~30%; Cytotoxicity in combination with doxorubicin compared with SNI-1 (MDA-MB-231 cells [1]; MDA-MB-231, 5 μM compound + 5 μM doxorubicin, 24 h): much better cytotoxicity when compared with SNI-1; Inhibition of viabilities as single agent compared with SNI-1 (MDA-MB-231 cells [1]; MDA-MB-231, single agent, 5 μM): greater inhibition of viabilities than SNI-1
NS(=O)(=O)c1ccc(-n2nnnc2SCC(=O)c2ccc(O)c(O)c2)cc1 [GL-252, 4-(5-((2-(3,4-dihydroxyphenyl)-2-oxoethyl)thio)-1H-tetrazol-1-yl)benzenesulfonamide]	62%	slightly higher viability inhibition compared with cisplatin and SNI-1 in combination or cisplatin alone; also recorded: viability inhibition equal to or better than parent SNI-1	18%			~10%	Cell viability inhibition as single agent compared with SNI-1 (MDA-MB-468 cells; 5 μM, 24 h): greater cell viability inhibition as a single agent when compared to SNI-1
CCOC(=O)c1ccc(-n2nnnc2SCC(=O)c2ccc(O)c(O)c2)cc1 [GL-251, Ethyl 4-(5-((2-(3,4-dihydroxyphenyl)-2-oxoethyl)thio)-1H-tetrazol-1-yl)benzoate]							Cell viability inhibition as single agent compared with SNI-1 (MDA-MB-468 cells; 5 μM, 24 h): greater cell viability inhibition as a single agent when compared to SNI-1
O=C(CSc1nnnn1-c1ccc([N+](=O)[O-])cc1)c1ccc(O)c(O)c1 [GL-342, 1-(3,4-dihydroxyphenyl)-2-((1-(4-nitrophenyl)-1H-tetrazol-5-yl)thio)ethan-1-one]	~50%	greater inhibitory effect	~22.27%	~73%	~23%	~21%	Extra loss of cell viability versus parent SNI-1 at 5 µM (MDA-MB-468 cells; Homo sapiens, MDA-MB-468 (FIG. 9), single agent, 5 μM, 24 h, read-out: Greater loss of cell viability as compared to parent SNI-1): ~10%; Cytotoxicity in combination with doxorubicin compared with SNI-1 (MDA-MB-468 cells; 24 h): slightly higher cytotoxicity; Cell viability inhibition as single agent compared with SNI-1 (MDA-MB-468 cells; 5 μM, 24 h): more cell viability inhibition; Inhibition of viabilities as single agent compared with SNI-1 (MDA-MB-231 cells [1]; MDA-MB-231, single agent, 5 μM): more cell viability inhibition; also recorded: greater inhibition of viabilities than SNI-1; Activity in combination with cisplatin compared with SNI-1 (HCC-1937 cells [3]; HCC-1937, 5 μM compound + 20 μM cisplatin): more cell viability inhibition than SNI-1 in combination with cisplatin
Cc1ccc(-n2nnnc2SCC(=O)c2ccc(N3CCOCC3)cc2)cc1 [GL-269, 1-(4-morpholinophenyl)-2-((1-(p-tolyl)-1H-tetrazol-5-yl)thio)ethan-1-one]	53%	much better activity in combination with cisplatin; also recorded: viability inhibition equal to or better than parent SNI-1	37%			~10%	
Cc1ccc(-n2nnnc2SCC(=O)c2ccc(O)c(O)c2)cc1 [SNI-1, 1-(3,4-dihydroxyphenyl)-2-((1-(p-tolyl)-1H-tetrazol-5-yl)thio)ethan-1-one]	~75%		10%	~77%	~8%	11%	Loss of viability in combination with cisplatin (previous studies) (MDA-MB-231 cells [4]): significant loss of viability; Response as a single agent in the syngeneic 4T1 TNBC model (4T1 TNBC): failed its response; Binding with CARP-1 and inhibition of its interaction with NEMO (CARP-1 and NEMO binding): binds with CARP-1 and inhibits its interaction with NEMO
Cc1ccc(-n2nnnc2SCC(=O)c2ccc3c(c2)OCCO3)cc1 [GL-268, 1-(2,3-dihydrobenzo[b][1,4]dioxin-6-yl)-2-((1-(p-tolyl)-1H-tetrazol-5-yl)thio)ethan-1-one]		viability inhibition equal to or better than parent SNI-1					
O=C(CSc1nc(-c2ccccc2)cs1)c1ccc(O)c(O)c1 [GL-216]		viability inhibition equal to or better than parent SNI-1	10%				Cell viability inhibition (%) with Doxorubicin MDA-MB-468 (MDA-MB-468 cells; 5 μM compound + 5 μM doxorubicin, 24 h): ~80%; Cell viability inhibition (%) with Cisplatin HCC-1937 (HCC-1937 cells [3]; 5 μM compound + 20 μM cisplatin): ~46%; Cell viability inhibition (%) Single-agent HCC-1937 (HCC-1937 cells [3]; single agent, SNI analogs 5 μM, cisplatin 20 μM): ~5%
COc1ccc(C(=O)CSc2nnnn2-c2ccc(C)cc2)cc1OC [GL-339, 1-(3,4-dimethoxyphenyl)-2-((1-(p-tolyl)-1H-tetrazol-5-yl)thio)ethan-1-one]		greater inhibition in combination with cisplatin					
COc1cccc2c1C(=O)c1c(O)c3c(c(O)c1C2=O)C[C@@](O)(C(=O)CO)C[C@@H]3O[C@H]1C[C@H](N)[C@H](O)[C@H](C)O1 [Doxorubicin, reference compound]							cytotoxicity at 5 µM (MDA-MB-468 cells; Homo sapiens, MDA-MB-468, 24 h, read-out: Cell viability inhibition (%) (Single agent) MDA-MB-468): ~39%; cytotoxicity at 5 µM (MDA-MB-231 cells [1]; MDA-MB-231, single agent, SNI analogs 5 μM, doxorubicin 5 μM, read-out: Cell viability inhibition (%) Single-agent MDA-MB-231): ~56%
